US20150132764A1, “BAG3 AS BIOCHEMICAL SERUM AND TISSUE MARKER” (BIOUNIVERSA S.R.L., priority 2012, published 2015)
Values belong to the molecule of their own block, whether it stands above or below them.

Assays:
[1] = target: FITC-conjugated recombinant BAG3 protein (human) (UniProt O95817); experiment: flow cytometry competition; 14 nM FITC-rBAG3 on J774 A.1 cells with 420 nM control F(ab')2
J774 A.1 cells [2] = experiment: FACS analysis of FITC-rBAG3 binding to J774 macrophages; set-up: species or system murine; conditions: for % of positive cells (±S.D.): flow cytometry
Experimental: FIG. 3B: BAG3 binds macrophages. J774 A1 macrophages (1×10^6 cells/ml) were incubated with different concentration of Fitc-BAG3 protein (7, 14 and 70 nm). FITC-BSA (70 nM) was used as a negative control (grey). Cells fluorescence was analyzed by flow cytometry.
rBAG3 binding—J774 A.1 cells were blocked with 2% FBS+0.1% NaN3 in PBS for 15 min on ice and incubated (2.5×105/100 μl) with different concentration of FITC-rBAG3 protein (7, 14 and 70 nm) or FITC-BSA (70 nM) in PBS containing 2% FBS+0.1% NaN3 for 30 min at 4° C. in the dark. After washing with PBS, the cells were resuspended in PBS+2% FBS+0.1% NaN3 and analyzed with a FACScan (BD Biosciences) flow cytometer.

J774 A.1 cells [3] = experiment: IL-6 release from J774 A1 macrophages (ELISA); assay type: cell-based, murine; conditions: FIG. 3C panel c
Experimental: FIG. 3C panel c—Analysis of IL-6 release from J774 A1 macrophages incubated with BAG3. J774 A1 cells at 80% confluency macrophages were incubated with control medium, BSA, LPS or recombinant BAG3 for 5 hours. BAG3 peptides (peptide 1, peptide 2, peptide 3, peptide 4 or scrambled peptide) 625 nM were added where indicated to verify their ability to block BAG3 activity. IL-6 production was measured in cell culture medium using an ELISA test. IL-6 concentration was evaluated by comparing the OD of the sample with that of a standard curve of recombinant IL-6.
IL6 was measured in supernatant of J774 A.1 cells (5×10^4/in 96-well microplates) treated with LPS (10 ng/ml) or with rBAG3 (14 nM) or BSA (14 nM) for 10 or 20 hours in absence or presence of polymyxin B sulfate (5 μg/ml). After treatment 50 μL of cell culture medium were collected and analyzed in triplicate with a mouse IL6 Kit (eBioscience).

[4] = system: inducible nitric oxide synthase (iNOS); experiment: iNOS expression in J774 A1 macrophages incubated with BAG3 (Western blotting); assay type: cell-based, murine; conditions: J774 A1 cells, 20 hours, FIG. 3C panel a
Experimental: (§1) FIG. 3C: panel a—Analysis of Cox-2 and iNOS levels in J774 A1 macrophages incubated with BAG3. J774 A1 cells at 80% confluency were incubated with control medium, BSA, LPS or rBAG3, for 20 hours. Polymixin was added where indicated to verify that the effects of E. coli-derived rBAG3 were independent from the presence of contaminating endotoxin. Cox-2 and iNOS expression were analyzed in cell lysates by Western blotting.
(§2) Cells were harvested and lysed in a buffer containing 20 mM HEPES (pH 7.5), 150 mM NaCl, 0.1% Triton (TNN buffer) supplemented with a protease inhibitors cocktail (1 mM phenylmethylsulfonyl fluoride, […]) by 3 cycles of freezing and thawing. Soluble proteins were collected after a centrifugation at 10,000 g for 15 min and their amount was determined by Bradford assay (Bio-Rad, Hercules, Calif.). 25 μg of total protein and serum samples (1:2 in PBS-T 0.05%) were run on 8% or 10% SDS-PAGE gels and electrophoretically transferred to nitrocellulose membrane. […] Immunoreactivity was detected by sequential incubation with horseradish peroxidase-conjugated secondary antibodies purchased from Pierce (Rockford, Ill.) and ECL detection reagents purchased from Amersham Life Sciences Inc. (Arlington Heights, Ill., USA).

cyclooxygenase (Cox)-2 = experiment: Cox-2 expression in J774 A1 macrophages incubated with BAG3 (Western blotting); assay type: cell-based, murine; conditions: J774 A1 cells, 20 hours, FIG. 3C panel a
Experimental: as §1, §2

J774 A.1 cells [5] = experiment: Nitrite release from J774 A1 macrophages (Griess reaction); assay type: cell-based, murine; conditions: 24 hours, FIG. 3C panel b
Experimental: FIG. 3C panel b—Analysis of nitrite release from J774 A1 macrophages incubated with BAG3. J774 A1 cells at 80% confluency were incubated with control medium, BSA, LPS or rBAG3 for 24 hours. 100 μl of supernatants from each sample were incubated with 100 μl of Griess reagent; the optical density at 550 nm (OD550) was measured with a Beckman DU62 spectrophotometer. Nitrite concentration was evaluated by comparing the OD550 of the sample with that of a standard curve of sodium nitrite.
Nitrite content (NO2^−), a stable metabolite of NO released by cells in the culture supernatant, was measured in J774 A.1 cells (5×104/in 96-well microplates) treated with LPS (10 ng/ml) or with rBAG3 (7, 14 and 28 nM) or BSA (28 nM) for 24 hours in absence or presence of polymyxin B sulfate (Sigma-Aldrich, St. Louis, Mo., USA) 5 μg/ml. NO2^− amounts were measured by Griess reaction. Briefly, 100 μL of cell culture medium were mixed with 100 μL of Griess reagent—equal volumes of 1% (w:v) sulphanilamide in 5% (v:v) phosphoric acid and 0.1% (w:v) naphtylethylenediamine-HCl—and incubated at room temperature for 10 min, and then the absorbance was measured at 550 nm in a microplate reader Titertek (Dasit, Cornaredo, Milan, Italy). The amount of NO2− (as μM) in the samples was calculated from a sodium nitrite standard curve.

[6] = target: surface of J774 A1 macrophages (unidentified BAG3 binding partner) (murine); experiment: flow cytometry on J774 A.1 cells, FITC-rBAG3
[7] = target: surface of J774 A1 macrophages (unidentified BAG3 binding partner) (murine); experiment: flow cytometry on J774 A.1 cells, FITC-rBAG3 minus FITC-BSA background
[8] = target: surface of J774 A1 macrophages (unidentified BAG3 binding partner) (murine); experiment: flow cytometry on J774 A.1 cells, FITC-BSA negative control
J774 A.1 cells [9] = experiment: FACS competition assay of FITC-rBAG3 binding to J774 macrophages; set-up: species or system murine; conditions: 625 nM peptide, then 14 nM FITC-rBAG3, J774 cells
Experimental: In particular J774 cells were incubated with 14 nM FITC-BAG3 protein and with 625 nM of BAG3 peptides (peptide 1, peptide 2, peptide 3, peptide 4 or scrambled peptide) or with 420 nM of F(ab′)2 fragments from anti-BAG3 monoclonal and polyclonal antibodies (mouse monoclonal AC1, AC2 and rabbit polyclonal TOS2). F(ab′)2 fragments from mouse IgG or F(ab′)2 fragments from rabbit IgG were used as a negative control.
Competition—J774 A.1 cells (2.5×105/100 μl) were incubated with 625 nM of BAG3 peptides (peptide 1, peptide 2, peptide 3, peptide 4 or scrambled peptide) or with 420 nM of F(ab′)2 fragments from anti-BAG3 monoclonal and polyclonal antibodies (mouse monoclonal AC1, AC2 and rabbit polyclonal TOS2) or F(ab′)2 fragments from mouse IgG or F(ab′)2 fragments from rabbit IgG in PBS containing 2% FBS+0.1% NaN3 for 30 min on ice. After incubation the cells were washing with PBS and then were incubated with of FITC-rBAG3 protein (14 nM), in PBS containing 2% FBS+0.1% NaN3 for 30 min at 4° C. in the dark. After washing with PBS, the cells were resuspended in PBS+2% FBS+0.1% NaN3 and analyzed by flow cytometer (BD Biosciences).

HCMa cells = experiment: Confocal direct fluorescence of rBAG3-FITC binding to cardiomyocytes; set-up: species or system Human; conditions: FITC-conjugated BAG3, 1 h, FIG. 3A
Text: FIG. 3A: Confocal microscopy analysis of direct fluorescence performed for detection of rBAG3-FITC binding to HCMa cells (a, b, c) and J774 A1 cells (d, e, f, g, h, i). BAG3 recombinant protein and purified BSA (albumin from bovine serum purchased from SIGMA) were conjugated to FITC using the FluoroTag FITC Conjugation Kit purchased from SIGMA following the manufacturer instructions. Equal amount of rBAG3-FITC (b, e) and BSA-FITC (h) proteins, calculated following the manufacturer instructions, were added in HCM and J774 A1 culture media with 0.1% NaN3 for 1 h. β-integrin was analyzed as control (a, d, g). Cells were analyzed by a Zeiss LSM confocal microscope. Merged images are shown in c, f and i.
Cells were cultured on coverslips in six-well plates to 60-70% confluence and equal amount of rBAG3-FITC and BSA-FITC proteins were added in HCMa and J774 A1 culture media with 0.1% NaN3 for 1 h. […] Samples were analyzed using a confocal laser scanning microscope (Zeiss LSM confocal microscope, Germany). […] For production of figures, brightness and contrast of images were adjusted by taking care to leave a light cellular fluorescence background for visual appreciation of the lowest fluorescence intensity features and to help comparison among the different experimental groups. […]

[10] = target: surface of J774 A1 macrophages (unidentified BAG3 binding partner) (murine); experiment: flow cytometry competition; 14 nM FITC-rBAG3 on J774 A.1 cells with 625 nM peptide

Chain of UniProt O95817 (O95817 whole entry): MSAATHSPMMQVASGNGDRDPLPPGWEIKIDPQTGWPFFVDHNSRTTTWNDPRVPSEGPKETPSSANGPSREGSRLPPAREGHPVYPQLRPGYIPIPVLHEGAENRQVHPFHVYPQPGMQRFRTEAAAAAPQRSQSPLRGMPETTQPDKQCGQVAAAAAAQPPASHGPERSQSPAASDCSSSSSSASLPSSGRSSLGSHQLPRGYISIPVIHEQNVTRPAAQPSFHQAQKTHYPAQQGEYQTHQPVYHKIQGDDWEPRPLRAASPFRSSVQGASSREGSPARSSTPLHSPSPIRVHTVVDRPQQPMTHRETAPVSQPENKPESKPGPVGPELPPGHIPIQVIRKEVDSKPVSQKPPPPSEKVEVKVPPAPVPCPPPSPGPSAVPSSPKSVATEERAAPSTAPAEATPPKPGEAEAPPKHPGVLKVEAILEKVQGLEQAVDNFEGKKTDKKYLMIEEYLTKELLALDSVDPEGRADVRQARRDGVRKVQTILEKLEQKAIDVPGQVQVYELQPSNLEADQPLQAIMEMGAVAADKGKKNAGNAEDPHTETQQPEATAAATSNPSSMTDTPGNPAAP

% inhibition [1]: 0%
% of positive cells [1]: 14.7%
Molecule: F(ab')2 fragments from rabbit IgG

Molecule: FITC-BSA: purified albumin from bovine serum conjugated to FITC, negative control [reference compound]
% of positive cells (±S.D.) (J774 A.1 cells [2]; FITC-BSA negative control, J774 cells): 4.04 (±0.06) %

Molecule: recombinant BAG3: E. coli-derived recombinant BAG3 protein
release of interleukin (IL)-6 (J774 A.1 cells [3]): induced the release
iNOS levels in macrophages [4]: enhanced
Cox-2 levels in macrophages (cyclooxygenase (Cox)-2): enhanced
release of nitrite (J774 A.1 cells [5]): induced the release

% of positive cells [6]: 15.7%
% of positive cells [7]: 11.1%
Molecule: FITC-conjugated recombinant BAG3 protein (from UniProt O95817 1-575) (ligand)

% of positive cells [8]: 4.04%
Molecule: FITC-conjugated bovine serum albumin (from UniProt P02769 25-607)

Molecule: NPSSMTDTPGNPAAP (listed as Homo sapiens) [Pep4, 14]
Competition assays: % inhibition (J774 A.1 cells [9]): 93.8%
Competition assays: % of positive cells (±S.D.) (J774 A.1 cells [9]): 0.68 (±0.20) %

% inhibition [1]: 0%
% of positive cells [1]: 12.3%
Molecule: F(ab')2 fragments from mouse IgG

Molecule: DKGKKNAGNAEDPHT (listed as Homo sapiens) [Pep3, 13]
Competition assays: % inhibition (J774 A.1 cells [9]): 47.2%
Competition assays: % of positive cells (±S.D.) (J774 A.1 cells [9]): 5.86 (±0.43) %

Molecule: FITC-rBAG3: BAG3 recombinant protein conjugated to FITC
binding to macrophages of the cell line J774 (in words) (J774 A.1 cells [2]; FITC-conjugated BAG3, FIG. 3B): bound to macrophages
% of positive cells (±S.D.) (J774 A.1 cells [2]; FITC-rBAG3 14 nM, J774 cells): 15.7 (±0.45) %
% of positive cells (±S.D.), (FITC-rBAG3)-(FITC-BSA) (J774 A.1 cells [2]; FITC-rBAG3 signal minus FITC-BSA signal, J774 cells): 11.06 (±0.45) %
binding to the cardiomyocyte surface (in words) (HCMa cells): did not apparently bind

Molecule: SSPKSVATEERAAPS (listed as Homo sapiens) [Pep2, 12]
Competition assays: % inhibition (J774 A.1 cells [9]): 89.1%
Competition assays: % of positive cells (±S.D.) (J774 A.1 cells [9]): 1.21 (±0.63) %

Molecule: DRDPLPPGWEIKIDPQ (listed as Homo sapiens) [Pepl, 11]
Competition assays: % inhibition (J774 A.1 cells [9]): 98.4%
Competition assays: % of positive cells (±S.D.) (J774 A.1 cells [9]): 0.18 (±0.05) %

% inhibition [10]: 47.2%
% of positive cells [10]: 5.86%
Molecule: DKGKKNAGNAEDPHT [BAG3 peptide 3]

% inhibition [10]: 98.4%
% of positive cells [10]: 0.18%
Molecule: DRDPLPPGWEIKIDPQ [BAG3 peptide 1]

% inhibition [10]: 89.1%
% of positive cells [10]: 1.21%
Molecule: SSPKSVATEERAAPS [BAG3 peptide 2]

% inhibition [10]: 93.8%
% of positive cells [10]: 0.68%
Molecule: NPSSMTDTPGNPAAP [BAG3 peptide 4]
